Reference: ChEMBL document CHEMBL1201862, “PubChem BioAssay data set” (2004)
Activity calls are given as the source filed them.

What was measured:
[1] = target: T1, Eukaryotic translation initiation factor 2-alpha kinase 3 (Homo sapiens, UniProt Q9NZJ5); assay: Dose response cell-based high-throughput screening assay to measure PERK inhibition. [Related pubchem assays: 1416 ]; assay type: functional
T1 sequence (Q9NZJ5 whole entry): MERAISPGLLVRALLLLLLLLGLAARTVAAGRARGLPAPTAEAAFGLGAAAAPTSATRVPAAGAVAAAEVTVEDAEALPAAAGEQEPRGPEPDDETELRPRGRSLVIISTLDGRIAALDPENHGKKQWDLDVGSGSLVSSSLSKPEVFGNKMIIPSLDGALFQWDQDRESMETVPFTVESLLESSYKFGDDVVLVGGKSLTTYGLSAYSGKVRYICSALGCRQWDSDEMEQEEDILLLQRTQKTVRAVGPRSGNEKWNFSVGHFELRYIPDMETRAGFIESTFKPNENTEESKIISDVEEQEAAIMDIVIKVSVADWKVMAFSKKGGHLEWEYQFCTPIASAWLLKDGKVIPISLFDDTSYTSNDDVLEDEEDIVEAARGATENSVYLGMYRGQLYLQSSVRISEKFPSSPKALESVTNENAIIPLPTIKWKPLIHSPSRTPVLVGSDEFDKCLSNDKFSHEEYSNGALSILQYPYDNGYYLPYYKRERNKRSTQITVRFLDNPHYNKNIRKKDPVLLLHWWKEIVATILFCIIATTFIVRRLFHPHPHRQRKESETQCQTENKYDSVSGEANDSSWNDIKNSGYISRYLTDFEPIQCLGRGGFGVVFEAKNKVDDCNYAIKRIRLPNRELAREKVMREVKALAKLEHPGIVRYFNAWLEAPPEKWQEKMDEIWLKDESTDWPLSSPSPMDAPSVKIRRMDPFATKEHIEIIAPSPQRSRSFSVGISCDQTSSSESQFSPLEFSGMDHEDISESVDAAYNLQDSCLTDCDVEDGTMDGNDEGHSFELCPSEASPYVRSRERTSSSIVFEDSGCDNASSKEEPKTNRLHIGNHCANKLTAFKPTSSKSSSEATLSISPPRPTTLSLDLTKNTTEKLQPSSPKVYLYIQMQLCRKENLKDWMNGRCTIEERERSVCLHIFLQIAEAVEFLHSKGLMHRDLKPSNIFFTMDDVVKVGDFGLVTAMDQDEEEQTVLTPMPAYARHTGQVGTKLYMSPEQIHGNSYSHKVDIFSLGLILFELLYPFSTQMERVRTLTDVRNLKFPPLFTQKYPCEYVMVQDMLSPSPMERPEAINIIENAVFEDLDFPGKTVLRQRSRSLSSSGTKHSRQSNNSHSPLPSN

[2] = target: T1, Eukaryotic translation initiation factor 2-alpha kinase 3; assay: Counterscreen assay for PERK inhibitors: Dose response cell-based high throughput screening assay to measure inhibition of PERK at 6 hours. [Related pubchem assays: 1522, 1416 ]; assay type: functional
Nonstructural protein 1 = Nonstructural protein 1 (Influenza A virus, UniProt Q194T2); assay type: functional, Influenza A virus (A/California/07/2009(H1N1))
Sequence of Nonstructural protein 1 (Q194T2 whole entry): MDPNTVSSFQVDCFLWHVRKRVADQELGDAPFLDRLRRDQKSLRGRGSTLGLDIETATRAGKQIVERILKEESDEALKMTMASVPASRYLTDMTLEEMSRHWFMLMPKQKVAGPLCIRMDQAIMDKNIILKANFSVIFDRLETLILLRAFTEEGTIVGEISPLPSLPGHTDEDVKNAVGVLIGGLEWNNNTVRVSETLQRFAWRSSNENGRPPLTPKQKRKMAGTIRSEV

Cytochrome P450 2C19 = Cytochrome P450 2C19 (Homo sapiens, UniProt P33261); assay: Cytochrome panel assay with activity outcomes. Panel member name: p450-cyp2c19 Compounds with AC50 equal or less than 10 uM are considered active; assay type: functional
Sequence of Cytochrome P450 2C19 (P33261 whole entry): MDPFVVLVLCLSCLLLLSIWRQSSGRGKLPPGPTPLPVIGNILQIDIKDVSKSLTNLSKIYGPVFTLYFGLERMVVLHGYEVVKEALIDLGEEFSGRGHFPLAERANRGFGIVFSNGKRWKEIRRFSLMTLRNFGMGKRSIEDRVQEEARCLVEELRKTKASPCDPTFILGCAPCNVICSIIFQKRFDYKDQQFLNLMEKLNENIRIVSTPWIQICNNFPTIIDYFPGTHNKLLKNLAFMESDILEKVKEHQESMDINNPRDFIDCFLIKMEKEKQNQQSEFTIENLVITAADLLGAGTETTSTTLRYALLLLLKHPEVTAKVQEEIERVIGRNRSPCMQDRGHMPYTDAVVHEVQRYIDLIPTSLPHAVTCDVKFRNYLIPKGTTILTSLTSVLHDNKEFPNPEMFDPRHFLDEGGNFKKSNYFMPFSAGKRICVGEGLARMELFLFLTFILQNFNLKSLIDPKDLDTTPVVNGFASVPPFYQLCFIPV

Cytochrome P450 2C9 [3] = target: T2, Cytochrome P450 2C9 (Homo sapiens, UniProt P11712)
T2 sequence (P11712 whole entry): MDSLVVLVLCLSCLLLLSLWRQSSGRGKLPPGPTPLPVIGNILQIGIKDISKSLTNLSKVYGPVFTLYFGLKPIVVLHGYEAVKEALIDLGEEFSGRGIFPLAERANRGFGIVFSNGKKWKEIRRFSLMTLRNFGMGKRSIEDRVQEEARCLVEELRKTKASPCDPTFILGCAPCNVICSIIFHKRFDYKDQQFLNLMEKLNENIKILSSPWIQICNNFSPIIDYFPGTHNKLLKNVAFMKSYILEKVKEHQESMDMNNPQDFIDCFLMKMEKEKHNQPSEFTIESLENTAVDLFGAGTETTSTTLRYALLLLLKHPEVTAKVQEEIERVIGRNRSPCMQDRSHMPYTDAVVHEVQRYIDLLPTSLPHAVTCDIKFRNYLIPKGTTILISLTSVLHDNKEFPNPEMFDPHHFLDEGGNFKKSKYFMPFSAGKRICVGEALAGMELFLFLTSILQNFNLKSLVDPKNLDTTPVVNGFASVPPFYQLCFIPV

Protein Rev = Protein Rev (Human immunodeficiency virus type 1 group M subtype B (isolate HXB2)(HIV-1), UniProt P04618); assay: blockers of HIV Rev/RRE RNA complex – biochemical, fluorescence polarization, HIV-1, dose response (AID 434976); set-up: species or system Human immunodeficiency virus 1
Sequence of Protein Rev (P04618 whole entry): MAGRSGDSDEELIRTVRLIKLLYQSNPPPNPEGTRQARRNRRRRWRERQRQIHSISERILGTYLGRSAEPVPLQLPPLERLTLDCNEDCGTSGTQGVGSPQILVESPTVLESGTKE

[4] = target: Female germline-specific tumor suppressor gld-1 (Caenorhabditis elegans, UniProt Q17339); assay: blockers of GLD-1/TGE RNA complex formation – biochemical, fluorescence polarization, C. elegans, dose response (AID 2802);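 note: fluorescence polarization of labeled TGE RNA bound by purified gld-1 protein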
Sequence of Female germline-specific tumor suppressor gld-1 (Q17339 whole entry): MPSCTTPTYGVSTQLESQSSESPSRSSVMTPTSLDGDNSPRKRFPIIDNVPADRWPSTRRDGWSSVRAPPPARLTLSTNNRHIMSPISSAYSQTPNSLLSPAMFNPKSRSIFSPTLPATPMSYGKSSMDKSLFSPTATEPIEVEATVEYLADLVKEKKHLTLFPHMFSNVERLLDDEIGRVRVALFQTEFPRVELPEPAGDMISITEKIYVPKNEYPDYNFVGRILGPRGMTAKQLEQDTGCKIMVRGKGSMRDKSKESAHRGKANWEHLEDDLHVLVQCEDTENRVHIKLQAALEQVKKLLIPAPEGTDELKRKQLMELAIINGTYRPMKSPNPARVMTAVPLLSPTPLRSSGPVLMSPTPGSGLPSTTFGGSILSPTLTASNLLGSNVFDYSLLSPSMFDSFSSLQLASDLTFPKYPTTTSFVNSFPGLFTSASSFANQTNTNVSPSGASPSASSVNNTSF

[5] = target: T3, Polyadenylate-binding protein 1 (Homo sapiens, UniProt P11940); assay: MLLE binding blockers, Cy5 peptide tracer – biochemical, fluorescence polarization, Cy5-PAM2 peptide, secondary, miRNA deadenylation inhibitor project, dose response (AID 602260); assay type: functional; conditions: read-out: IC50_Mean
T3 sequence (P11940 whole entry, the tested form may be a part): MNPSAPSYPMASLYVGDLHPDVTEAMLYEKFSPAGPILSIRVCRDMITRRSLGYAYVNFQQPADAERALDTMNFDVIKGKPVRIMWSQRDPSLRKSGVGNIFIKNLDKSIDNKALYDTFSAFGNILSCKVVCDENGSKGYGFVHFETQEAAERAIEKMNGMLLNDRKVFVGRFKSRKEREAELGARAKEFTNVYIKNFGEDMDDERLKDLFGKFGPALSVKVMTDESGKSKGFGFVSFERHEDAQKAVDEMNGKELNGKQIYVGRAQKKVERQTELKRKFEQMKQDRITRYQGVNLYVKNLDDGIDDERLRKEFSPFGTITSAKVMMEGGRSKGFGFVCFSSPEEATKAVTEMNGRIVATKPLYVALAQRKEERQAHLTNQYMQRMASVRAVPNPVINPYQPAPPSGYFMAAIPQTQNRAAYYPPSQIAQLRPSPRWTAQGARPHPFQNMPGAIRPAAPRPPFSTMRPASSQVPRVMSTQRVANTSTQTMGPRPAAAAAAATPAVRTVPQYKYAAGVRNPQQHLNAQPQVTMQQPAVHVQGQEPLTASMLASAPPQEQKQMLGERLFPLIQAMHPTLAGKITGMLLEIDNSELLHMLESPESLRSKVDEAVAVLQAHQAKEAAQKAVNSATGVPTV

[6] = target: T3, Polyadenylate-binding protein 1; assay: MLLE domain peptide-binding blockers, IC50 – biochemical, fluorescence polarization, FITC-PAM2 peptide, dose response (AID 602259); assay type: functional; conditions: read-out: IC50_Mean
Bcl-2-like protein 10 = Bcl-2-like protein 10 (Homo sapiens, UniProt Q9HD36); assay: Bcl-B/TR3 peptide binding disruption – biochemical, fluorescence polarization, FITC-TR3 peptide, selectivity assay for Bfl-1 inhibitor project, primary screen (AID 748);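 note: fluorescence polarization from a fluorescein-labelled TR3 peptide binding purified Bcl-B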
Sequence of Bcl-2-like protein 10 (Q9HD36 whole entry): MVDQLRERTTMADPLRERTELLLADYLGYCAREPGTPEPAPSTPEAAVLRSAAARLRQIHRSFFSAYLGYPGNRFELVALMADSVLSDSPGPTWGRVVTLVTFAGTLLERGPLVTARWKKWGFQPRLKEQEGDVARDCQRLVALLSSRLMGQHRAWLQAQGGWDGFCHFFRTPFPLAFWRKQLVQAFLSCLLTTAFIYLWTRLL

[7] = viability of PTEN-deleted HCT116 cells – cell-based, HCT116 PTEN knockout, dose response (AID 1047); assay type: functional;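 note: HCT116 colon tumor cells with PTEN knocked out; cells exposed to compound for 60 hours before readout; potency for loss of cell viability measured by luminescence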
[8] = viability of HCT116 lacking mutant beta-catenin – cell-based, human colon tumor, dose response (AID 1045); assay type: functional;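 note: HCT116 colon tumor cells with beta catenin knocked out; cells exposed to compound for 60 hours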
[9] = target: Eukaryotic translation initiation factor 4H (Homo sapiens, UniProt Q15056); assay: eIF4H binding inhibition – biochemical, uHTS, fluorescence polarization, translation initiation inhibitor project, primary screen (AID 2012)
[10] = target: T3, Polyadenylate-binding protein 1; assay: blockers of PABP interaction with poly(A) – biochemical, fluorescence polarization, […] (AID 2014)
Cytochrome P450 2C9 [11] = target: T2, Cytochrome P450 2C9; conditions: Potency
[12] = target: T4, RNA-binding protein pos-1 (Caenorhabditis elegans, UniProt G5EF15); assay: disruptors of C. elegans POS-1 RNA interaction – biochemical, fluorescence polarization, dose response (AID 1964);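 note: purified POS-1 fused to maltose binding protein made in E. coli; potency of compounds blocking POS-1 binding to fluorescent RNA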
T4 sequence (G5EF15 whole entry): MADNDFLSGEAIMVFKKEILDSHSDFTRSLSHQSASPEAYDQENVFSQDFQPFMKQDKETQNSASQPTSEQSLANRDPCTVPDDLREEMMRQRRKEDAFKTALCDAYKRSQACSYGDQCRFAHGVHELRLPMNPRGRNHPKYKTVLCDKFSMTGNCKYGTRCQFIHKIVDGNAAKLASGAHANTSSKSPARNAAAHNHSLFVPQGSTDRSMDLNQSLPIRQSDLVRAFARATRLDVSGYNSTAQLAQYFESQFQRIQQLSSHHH

[13] = target: Guanyl-specific ribonuclease T1 (Aspergillus oryzae (strain ATCC 42149 / RIB 40), UniProt P00651); assay: inhibition of ribonuclease T1 activity – biochemical, fluorescence polarization, 1536-well, counter-screen for TPT1 inhibitor project, dose response (AID 2167)
Sequence of Guanyl-specific ribonuclease T1 (P00651 whole entry): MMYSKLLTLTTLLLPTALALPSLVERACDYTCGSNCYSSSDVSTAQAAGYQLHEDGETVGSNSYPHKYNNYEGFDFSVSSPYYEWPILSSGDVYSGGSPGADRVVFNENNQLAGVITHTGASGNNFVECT

[14] = target: T5, Zinc finger protein mex-5 (Caenorhabditis elegans, UniProt Q9XUB2); assay: potency of MEX-5 RNA-binding blockers – biochemical, C. elegans, fluorescence polarization, dose response (AID 1960)
T5 sequence (Q9XUB2 whole entry): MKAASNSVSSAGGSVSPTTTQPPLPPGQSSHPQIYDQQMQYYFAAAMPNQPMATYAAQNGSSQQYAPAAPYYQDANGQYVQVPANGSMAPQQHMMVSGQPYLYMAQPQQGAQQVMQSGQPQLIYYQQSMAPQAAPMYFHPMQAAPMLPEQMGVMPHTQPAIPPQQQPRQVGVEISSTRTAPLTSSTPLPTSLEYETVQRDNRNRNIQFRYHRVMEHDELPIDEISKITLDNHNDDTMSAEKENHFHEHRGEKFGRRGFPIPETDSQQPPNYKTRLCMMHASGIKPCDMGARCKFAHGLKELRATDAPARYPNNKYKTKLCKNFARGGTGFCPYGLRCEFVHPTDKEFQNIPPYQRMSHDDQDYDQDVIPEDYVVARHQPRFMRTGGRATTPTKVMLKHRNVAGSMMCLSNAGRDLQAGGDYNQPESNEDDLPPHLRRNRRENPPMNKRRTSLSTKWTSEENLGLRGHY

[15] = target: Likely tRNA 2'-phosphotransferase (Candida albicans (strain SC5314 / ATCC MYA-2876) (Yeast), UniProt Q5A7N4); assay: inhibition of Candida TPT1 enzyme activity – biochemical, fluorescence polarization, dose response (AID 2160)
Sequence of Likely tRNA 2'-phosphotransferase (Q5A7N4 whole entry): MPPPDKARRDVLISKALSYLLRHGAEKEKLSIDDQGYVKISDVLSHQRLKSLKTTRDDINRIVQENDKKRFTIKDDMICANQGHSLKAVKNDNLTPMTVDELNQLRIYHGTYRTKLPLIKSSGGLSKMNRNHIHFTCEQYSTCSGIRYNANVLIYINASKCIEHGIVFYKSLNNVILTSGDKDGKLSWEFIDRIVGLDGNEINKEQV

[16] = target: DNA dC->dU-editing enzyme APOBEC-3A (Homo sapiens, UniProt P31941); assay: Dose Response confirmation of small molecule APOBEC3A DNA Deaminase Inhibitors via a fluorescence-based single-stranded DNA deaminase assay. [Related pubchem assays (depositor defined):AID493011, AID493024]; assay type: functional
Sequence of DNA dC->dU-editing enzyme APOBEC-3A (P31941 whole entry): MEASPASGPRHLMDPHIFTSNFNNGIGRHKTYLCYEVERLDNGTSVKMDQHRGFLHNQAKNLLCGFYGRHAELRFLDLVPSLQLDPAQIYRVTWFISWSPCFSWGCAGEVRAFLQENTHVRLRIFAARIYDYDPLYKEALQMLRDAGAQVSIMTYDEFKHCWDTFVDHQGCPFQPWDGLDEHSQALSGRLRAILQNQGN

[17] = target: DNA dC->dU-editing enzyme APOBEC-3G (Homo sapiens, UniProt Q9HC16); assay type: functional;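 note: Dose-response counterscreen measuring inhibition of APOBEC3G DNA deaminase activity, run while confirming APOBEC3A inhibitors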
Sequence of DNA dC->dU-editing enzyme APOBEC-3G (Q9HC16 whole entry): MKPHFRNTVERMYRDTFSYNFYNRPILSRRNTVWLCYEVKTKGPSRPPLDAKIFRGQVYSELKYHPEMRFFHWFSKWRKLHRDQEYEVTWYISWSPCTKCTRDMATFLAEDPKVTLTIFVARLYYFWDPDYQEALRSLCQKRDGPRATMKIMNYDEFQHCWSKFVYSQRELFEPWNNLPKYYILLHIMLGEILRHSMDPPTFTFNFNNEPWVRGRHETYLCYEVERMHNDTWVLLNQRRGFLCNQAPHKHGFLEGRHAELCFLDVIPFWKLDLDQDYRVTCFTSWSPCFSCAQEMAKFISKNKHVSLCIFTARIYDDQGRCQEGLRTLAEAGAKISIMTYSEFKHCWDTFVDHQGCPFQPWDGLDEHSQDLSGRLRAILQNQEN

Cc1ccccc1NC(=O)NCCCN1CCCC1
EC50 [1]: > 55.7 µM (not active)
EC50 [2]: > 55.7 µM (not active)

O=C(Cn1cnc([N+](=O)[O-])n1)N/N=C/c1ccccc1O
EC50 [1]: > 55.7 µM (not active)
EC50 [2]: > 55.7 µM (not active)
IC50 (Nonstructural protein 1): 9.05 µM (active)
AC50 (Cytochrome P450 2C19): inconclusive
AC50 (Cytochrome P450 2C9 [3]): 10 µM (inconclusive)

CN(C(=O)CN1C(=O)c2cccc(N)c2C1=O)C1CCCCC1
IC50 (Protein Rev): > 8.39 µM (active)
IC50 [4]: 4.29 µM (active)
IC50 [5]: > 66 µM (inactive)
IC50 [6]: 32.6 µM (inactive)

COc1ccc(-c2coc3c(CN4CCCCC4)c(O)c(CN4CCCCC4)c(O)c3c2=O)cc1
IC50 (Bcl-2-like protein 10): 79.7 µM (inactive)
EC50 [7]: 34.4 µM (active)
EC50 [8]: 32.6 µM (active)

Cc1ccc[n+](CC(=O)c2ccccc2)c1
IC50 [9]: > 100 µM (inactive)
IC50 [10]: 5.7 µM (active)

CC(C)[C@@H](CC(=O)N[C@@H]1CCNC[C@H]1C(=O)N[C@H](CC(=O)N[C@@H](CCC(=O)O)CC(=O)O)Cc1c[nH]c2ccccc12)NC(=O)C[C@H](CO)NC(=O)[C@@H]1CNCC[C@H]1N
AC50 (Cytochrome P450 2C9 [11]): 39.8 µM (inconclusive)

CCOc1cc(/C=C2\C(=O)NC(=O)N(CCc3ccc(F)cc3)C2=O)ccc1O
EC50 [12]: > 300 µM (not active)
IC50 [13]: 28 µM (not active)
EC50 [14]: > 300 µM (not active)
IC50 [15]: > 55.7 µM (not active)

C[N+]1(CC(O)c2ccccc2)CCCCCC1 (stereo unspecified)
IC50 [9]: 60.9 µM (active)
IC50 [10]: 5.42 µM (active)
IC50 [16]: 2.71 µM (active)
IC50 [17]: 4.26 µM (active)

O=C(COC(=O)CC12CC3CC(CC(C3)C1)C2)Nc1ncc(Cl)cc1Cl
IC50 (Bcl-2-like protein 10): 40.2 µM (active)
